pIC50: −log10 of the molar value.
Experiments:
[1] = Antiproliferative activity against human UO31 cells after 3 days by fluorescence assay; type: functional; conditions: UO-31, 72 h
[2] = Antiproliferative activity against human Hs 578T cells after 3 days by fluorescence assay; type: functional; conditions: 72 h
[3] = tested on: NCI-H226; assay: Antiproliferative activity against human NCI-H226 cells after 3 days by fluorescence assay; type: functional; conditions: NCI-H226, 72 h
[4] = target: Tubulin; assay: Displacement of [3H]-colchicine from tubulin (unknown origin) after 10 mins by turbidimetrically; type: protein-complex assay, Homo sapiens
[5] = Antiproliferative activity against human HCT15 cells after 3 days by fluorescence assay; type: functional; conditions: HCT-15, 72 h
[6] = tested on: NCI-H322M; assay: Antiproliferative activity against human NCI-H322M cells after 3 days by fluorescence assay; type: functional; conditions: 72 h
[7] = tested on: Malme-3M; assay: Antiproliferative activity against human MALME-3M cells after 3 days by fluorescence assay; type: functional; conditions: 72 h
[8] = Antiproliferative activity against human PC3 cells after 3 days by fluorescence assay; type: functional; conditions: PC-3, 72 h
[9] = tested on: MDA-MB-468; assay: Antiproliferative activity against human MDA-MB-468 cells after 3 days by fluorescence assay; type: functional; conditions: MDA-MB-468, 72 h
[10] = tested on: HL-60(TB); assay: Antiproliferative activity against human HL-60(TB) cells after 3 days by fluorescence assay; type: functional; conditions: HL-60, 72 h
[11] = Antiproliferative activity against human OVCAR3 cells after 3 days by fluorescence assay; type: functional; conditions: OVCAR-3, 72 h
[12] = tested on: MCF7; assay: Antiproliferative activity against human MCF7 cells after 3 days by fluorescence assay; type: functional; conditions: MCF7, 72 h
[13] = Antiproliferative activity against human SKOV3 cells after 3 days by fluorescence assay; type: functional; conditions: SK-OV-3, 72 h
[14] = target: T1, Tubulin (Homo sapiens) (UniProt P68371+Q9H4B7+P0DPH7+P68366+Q13509+Q71U36+P04350+Q3ZCM7+P07437+P68363+Q9BQE3+Q6PEY2+Q13885+Q9BVA1+Q9BUF5); assay: Displacement of [3H]-colchicine from tubulin (unknown origin) at 1 uM after 10 mins by turbidimetrically relative to control; type: protein-complex assay
[15] = Antiproliferative activity against human OVCAR5 cells after 3 days by fluorescence assay; type: functional; conditions: OVCAR-5, 72 h
[16] = tested on: SK-MEL-28; assay: Antiproliferative activity against human SK-MEL-28 cells after 3 days by fluorescence assay; type: functional; conditions: SK-MEL-28, 72 h
[17] = tested on: SNB-19; assay: Antiproliferative activity against human SNB19 cells after 3 days by fluorescence assay; type: functional; conditions: SNB-19, 72 h
[18] = tested on: CCRF-CEM; assay: Antiproliferative activity against human CCRF-CEM cells after 3 days by fluorescence assay; type: functional; conditions: 72 h
[19] = tested on: NCI-H522; assay: Antiproliferative activity against human NCI-H522 cells after 3 days by fluorescence assay; type: functional; conditions: NCI-H522, 72 h
[20] = tested on: TK-10; assay: Antiproliferative activity against human TK10 cells after 3 days by fluorescence assay; type: functional; conditions: TK-10, 72 h
[21] = tested on: DU-145; assay: (§1) Antiproliferative activity against human DU145 cells after 3 days by fluorescence assay; type: functional; conditions: DU-145, 72 h
[22] = Antiproliferative activity against human RXF393 cells after 3 days by fluorescence assay; type: functional; conditions: RXF 393, 72 h
[23] = tested on: MDA-MB-435; assay: Antiproliferative activity against human MDA-MB-435 cells after 3 days by fluorescence assay; type: functional; conditions: MDA-MB-435, 72 h
[24] = target: T1, Tubulin (Homo sapiens); assay: Displacement of [3H]-colchicine from tubulin (unknown origin) at 5 uM after 10 mins by turbidimetrically relative to control; type: protein-complex assay
[25] = Antiproliferative activity against human SF295 cells after 3 days by fluorescence assay; type: functional; conditions: SF-295, 72 h
[26] = tested on: A498; assay: Antiproliferative activity against human A498 cells after 3 days by fluorescence assay; type: functional; conditions: A498, 72 h
[27] = tested on: SR; assay: Antiproliferative activity against human SR cells after 3 days by fluorescence assay; type: functional; conditions: 72 h
[28] = Antiproliferative activity against human RPMI8226 cells after 3 days by fluorescence assay; type: functional; conditions: RPMI-8226, 72 h
[29] = Antiproliferative activity against human COLO205 cells after 3 days by fluorescence assay; type: functional; conditions: COLO 205, 72 h
[30] = Antiproliferative activity against human UACC257 cells after 3 days by fluorescence assay; type: functional; conditions: UACC-257, 72 h
[31] = tested on: SNB-75; assay: Antiproliferative activity against human SNB75 cells after 3 days by fluorescence assay; type: functional; conditions: SNB-75, 72 h
[32] = tested on: 786-0; assay: Antiproliferative activity against human 786-0 cells after 3 days by fluorescence assay; type: functional; conditions: 786-0, 72 h
[33] = tested on: NCI-H460; assay: Antiproliferative activity against human NCI-H460 cells after 3 days by fluorescence assay; type: functional; conditions: NCI-H460, 72 h
[34] = tested on: U-251; assay: Antiproliferative activity against human U251 cells after 3 days by fluorescence assay; type: functional; conditions: U-251, 72 h
[35] = Antiproliferative activity against human OVCAR8 cells after 3 days by fluorescence assay; type: functional; conditions: OVCAR-8, 72 h
[36] = tested on: NCI-H23; assay: Antiproliferative activity against human NCI-H23 cells after 3 days by fluorescence assay; type: functional; conditions: NCI-H23, 72 h
[37] = tested on: IGROV-1; assay: Antiproliferative activity against human IGROV1 cells after 3 days by fluorescence assay; type: functional; conditions: IGROV-1, 72 h
[38] = tested on: KM12; assay: Antiproliferative activity against human KM12 cells after 3 days by fluorescence assay; type: functional; conditions: KM12, 72 h
[39] = tested on: HOP-62; assay: Antiproliferative activity against human HOP62 cells after 3 days by fluorescence assay; type: functional; conditions: HOP-62, 72 h
[40] = Antiproliferative activity against human LOXIMVI cells after 3 days by fluorescence assay; type: functional; conditions: LOX IMVI, 72 h
[41] = Antiproliferative activity against human MOLT4 cells after 3 days by fluorescence assay; type: functional; conditions: MOLT-4, 72 h
[42] = tested on: SN12C; assay: Antiproliferative activity against human SN12C cells after 3 days by fluorescence assay; type: functional; conditions: 72 h
[43] = tested on: SF-268; assay: Antiproliferative activity against human SF268 cells after 3 days by fluorescence assay; type: functional; conditions: SF-268, 72 h
[44] = Antiproliferative activity against human SF539 cells after 3 days by fluorescence assay; type: functional; conditions: SF-539, 72 h
[45] = Antiproliferative activity against human UACC62 cells after 3 days by fluorescence assay; type: functional; conditions: UACC-62, 72 h
[46] = tested on: M14; assay: Antiproliferative activity against human M14 cells after 3 days by fluorescence assay; type: functional; conditions: M14, 72 h
[47] = Antiproliferative activity against human BT549 cells after 3 days by fluorescence assay; type: functional; conditions: BT-549, 72 h
[48] = tested on: CAKI-1; assay: Antiproliferative activity against human CAKI-1 cells after 3 days by fluorescence assay; type: functional; conditions: CAKI-1, 72 h
[49] = tested on: SK-MEL-2; assay: Antiproliferative activity against human SK-MEL-2 cells after 3 days by fluorescence assay; type: functional; conditions: SK-MEL-2, 72 h
[50] = tested on: SW-620; assay: Antiproliferative activity against human SW620 cells after 3 days by fluorescence assay; type: functional; conditions: SW-620, 72 h
[51] = tested on: T47D; assay: Antiproliferative activity against human T47D cells after 3 days by fluorescence assay; type: functional; conditions: 72 h
[52] = tested on: K562; assay: Antiproliferative activity against human K562 cells after 3 days by fluorescence assay; type: functional; conditions: K562, 72 h
[53] = target: T1, Tubulin (Homo sapiens); assay: Displacement of [3H]-colchicine from tubulin (unknown origin) at 50 uM after 10 mins by turbidimetrically relative to control; type: protein-complex assay
[54] = Antiproliferative activity against human HCT116 cells after 3 days by fluorescence assay; type: functional; conditions: HCT-116, 72 h
[55] = tested on: A549; assay: Antiproliferative activity against human A549 cells after 3 days by fluorescence assay; type: functional; conditions: A549, 72 h
[56] = Antiproliferative activity against human OVCAR4 cells after 3 days by fluorescence assay; type: functional; conditions: OVCAR-4, 72 h
[57] = tested on: HT-29; assay: Antiproliferative activity against human HT-29 cells after 3 days by fluorescence assay; type: functional; conditions: HT-29, 72 h
[58] = tested on: MDA-MB-231; assay: Antiproliferative activity against human MDA-MB-231 cells after 3 days by fluorescence assay; type: functional; conditions: MDA-MB-231, 72 h
[59] = Antiproliferative activity against human NCI-ADR-RES cells after 3 days by fluorescence assay; type: functional; conditions: 72 h
[60] = Antiproliferative activity against human HCC2998 cells after 3 days by fluorescence assay; type: functional; conditions: HCC 2998, 72 h
[61] = Antiproliferative activity against human EKVX cells after 3 days by fluorescence assay; type: functional; conditions: 72 h
[62] = tested on: DU-145; assay: as §1; type: functional; conditions: DU-145, 72 h; remark: listed apart in the source
[63] = tested on: ACHN; assay: Antiproliferative activity against human ACHN cells after 3 days by fluorescence assay; type: functional; conditions: 72 h
[64] = Antiproliferative activity against human HOP92 cells after 3 days by fluorescence assay; type: functional; conditions: HOP-92, 72 h
[65] = tested on: SK-MEL-5; assay: Antiproliferative activity against human SK-MEL-5 cells after 3 days by fluorescence assay; type: functional; conditions: SK-MEL-5, 72 h

COc1cccc(NC(=O)N2CCC(c3nc(-c4ccc(C)cc4)no3)CC2)c1
GI50 [1]: 6.46 µM
GI50 [2]: 5.5 µM
GI50 [3]: 9.12 µM
pIC50 [4]: 5.52
GI50 [5]: 4.9 µM
GI50 [6]: 11.7 µM
GI50 [7]: 4.17 µM
GI50 [8]: 4.37 µM
GI50 [9]: 2.45 µM
GI50 [10]: 0.603 µM
GI50 [11]: 2.63 µM
GI50 [12]: 3.24 µM
GI50 [13]: 4.47 µM
inhibition [14]: 5.7%
GI50 [15]: 13.2 µM
GI50 [16]: 13.2 µM
GI50 [17]: 8.71 µM
GI50 [18]: 3.55 µM
GI50 [19]: 4.07 µM
GI50 [20]: 9.55 µM
GI50 [21]: 4.5 µM
GI50 [22]: 4.07 µM
GI50 [23]: 0.537 µM
inhibition [24]: 8.2%
GI50 [25]: 3.09 µM
GI50 [26]: 5.01 µM
GI50 [27]: 0.417 µM
GI50 [28]: 3.31 µM
GI50 [29]: 3.8 µM
GI50 [30]: 16.6 µM
GI50 [31]: 7.94 µM
GI50 [32]: 6.03 µM
GI50 [33]: 3.47 µM
GI50 [34]: 4.17 µM
GI50 [35]: 7.08 µM
GI50 [36]: 6.03 µM
GI50 [37]: 9.12 µM
GI50 [38]: 3.31 µM
GI50 [39]: 4.68 µM
GI50 [40]: 5.5 µM
GI50 [41]: 5.5 µM
GI50 [42]: 11 µM
GI50 [43]: 7.24 µM
GI50 [44]: 3.47 µM
GI50 [45]: 6.61 µM
GI50 [46]: 3.24 µM
GI50 [47]: 13.8 µM
GI50 [48]: 5.75 µM
GI50 [49]: 11 µM
GI50 [50]: 3.98 µM
GI50 [51]: 5.5 µM
GI50 [52]: 0.355 µM
inhibition [53]: 19%
GI50 [54]: 4.79 µM
GI50 [55]: 5.13 µM
GI50 [56]: 7.24 µM
GI50 [57]: 3.31 µM
GI50 [58]: 18.2 µM
GI50 [59]: 2.75 µM
GI50 [60]: 5.01 µM
GI50 [61]: 6.76 µM
GI50 [62]: 3.63 µM
GI50 [63]: 5.89 µM
GI50 [64]: 3.31 µM
GI50 [65]: 3.39 µM

Source: ChEMBL document CHEMBL3352299, “Antiproliferative 4-(1,2,4-oxadiazol-5-yl)piperidine-1-carboxamides, a new tubulin inhibitor chemotype” (Bioorg Med Chem Lett, 2014)
